Test results reported in PubChem BioAssay (NCI).
Several values for one entry are separate records, joined by “and”; a condition that tells them apart may be missing. Equal entries are not always repeated.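 Following 48 hours of exposure in 96-well plates, responses at five concentrations were used to interpolate endpoints linearly. At the GI50, growth is halved. TGI is the concentration that stops growth completely.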

What was measured:
Assay in all cases: NCI tumour cell line growth inhibition, 48 h
[1] = system: SK-OV-3 ovarian
[2] = system: SN12C renal
[3] = system: T-47D breast
[4] = system: HCT-116 colon
[5] = system: OVCAR-4 ovarian
[6] = system: A549 NSCLC
[7] = system: A498 renal
[8] = system: LOX IMVI melanoma
[9] = system: RPMI-8226 leukemia
[10] = system: NCI/ADR-RES ovarian

SMILES	GI50 [1]	TGI [1]	GI50 [2]	TGI [2] [µM]	GI50 [3]	TGI [3]	GI50 [4]	TGI [4]	GI50 [5]	TGI [5]	GI50 [6]	TGI [6]	GI50 [7]	TGI [7]	GI50 [8]	TGI [8] [µM]	GI50 [9]	TGI [9] [µM]	GI50 [10]	TGI [10]
CCCCN=C(N)c1ccc(N2CCCN(c3ccc(C(N)=NCCCC)cc3)CC2)cc1	> 100 µM	> 100 µM	16.6 µM	> 100	10.9 µM	> 100 µM	21 µM	> 100 µM	83.1 µM	> 100 µM	4.07 µM	> 100 µM	0.529 µM	30.3 µM	22.5 µM	> 67.6	5.37 µM	> 59.8	> 100 µM	> 100 µM
ClCc1ccc(Cn2cnc3c(Cl)ncnc32)cc1	20 µM	47.6 µM	8.46 µM	20.5		> 100 µM	10.4 µM	17.4 µM		> 25.7 µM	11.2 µM	38.3 µM	29.4 µM	50.4 µM	5.8 µM	20.4	12.2 µM	33.5	10.8 µM	25.2 µM
COc1ccc(Cn2cc3c(c2)-c2oncc2CC3)cc1OC	0.152 µM	1.14 µM	0.331 µM	> 50	0.267 µM	> 19.3 µM	0.193 µM	8.57 µM	0.643 µM	> 50 µM	0.283 µM	48.4 µM	0.102 µM	0.678 µM	0.366 µM	> 50	0.19 µM		0.132 µM	1.38 µM
Cc1ccc(NC(=O)Nc2c(Cl)cccc2Cl)cn1	5.97 µM	> 100 µM	55.4 µM	> 100	13.9 µM	> 100 µM	11.1 µM	> 100 µM	65 µM	> 100 µM	8.51 µM	43 µM	12.1 µM	> 100 µM	21.3 µM	> 100	9.16 µM	> 100	4.46 µM	70.3 µM
O=Cc1c(-c2ccccc2)[nH]c2ccccc2c1=O		> 100 µM		> 100		> 100 µM		> 100 µM		> 100 µM		> 100 µM		> 100 µM		> 100		85.6		> 100 µM
Nc1cc(C(F)(F)F)c(-c2cc(N3CCOCC3)nc(N3CCOCC3)n2)cn1	0.235 µM and 0.654 µM	1.58 µM and 2.94 µM	1.27 µM and 1.61 µM	> 100	0.145 µM and 0.273 µM	0.77 µM and 1.31 µM	1.21 µM and 1.12 µM	> 10 µM and 9.38 µM	1.4 µM and 1.27 µM	> 9.01 µM and 29 µM	1.17 µM and 1.29 µM	7.06 µM and 4.99 µM	0.189 µM and 0.205 µM	0.713 µM and 1.09 µM	0.807 µM and 0.907 µM	> 33.4	1.31 µM and 1.47 µM	> 23.1	0.753 µM and 0.856 µM	3.45 µM and > 21.5 µM
O=C(Nc1ccccc1C(F)(F)F)c1ccc(NC2=C(Cl)C(=O)N(Cc3ccccc3)C2=O)cc1	57.7 µM	> 100 µM	18.6 µM	> 100	> 100 µM	> 100 µM	29.4 µM	> 100 µM	33.5 µM	> 100 µM	40.5 µM	> 100 µM	38.3 µM	89.4 µM	18.8 µM	> 100	8.4 µM	> 100	39.3 µM	> 100 µM
O=C(CCl)Nc1cc(Cl)c(Cl)cc1Cl		> 10 µM		2.96		5.59 µM		2.94 µM		4.06 µM		4.56 µM		> 10 µM		3.03		> 10		5.31 µM
O=C(Nc1cccc(-n2cc(-c3ccncc3)c(-c3ccc(O)c(Cl)c3)n2)c1)c1cc(C(F)(F)F)cc(C(F)(F)F)c1	22.8 µM	> 50 µM	7.04 µM	> 50	2.28 µM	30.8 µM	2.88 µM	> 50 µM	3.31 µM	> 50 µM	2.41 µM	> 50 µM	9.2 µM	> 50 µM	1.86 µM	> 50	3.31 µM	33.1	4.72 µM	> 50 µM
NC(Cc1c[nH]c2ccc(F)cc12)C(=O)O (configuration not stated)	451 µM	1370 µM	918 µM	> 2500	1730 µM	> 2500 µM	853 µM	> 2500 µM	953 µM	> 2500 µM	855 µM	> 2500 µM	580 µM	1630 µM	509 µM	1860	1240 µM	> 2500	675 µM	> 2500 µM
